Read-outs that look alike come from different tables or passages of the source.
What was measured:
P110 δ/Pi3K δ = P110 δ/Pi3K δ (Homo sapiens, UniProt O00329); assay: Fluorescent (HTRF) determination of PI3K enzyme activity, δ isoform; assay type: biochemical; parameters: inhibition: dose or concentration left out as unconfirmed
Outline: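 HTRF kit detecting PIP3 formed from PIP2 by human PI3Kδ, at room temperature. Reaction started with 400 μM ATP (addition concentration) for 30 min, then stopped, and detection mix incubated 6–18 h in the dark. Percent inhibition taken against blank and enzyme controls, and IC50 fitted.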

P110β = P110β (Homo sapiens, UniProt P42338); assay: Fluorescent (HTRF) determination of PI3K enzyme activity, β isoform; assay type: biochemical
Sequence of P110β (P42338 whole entry, canonical isoform): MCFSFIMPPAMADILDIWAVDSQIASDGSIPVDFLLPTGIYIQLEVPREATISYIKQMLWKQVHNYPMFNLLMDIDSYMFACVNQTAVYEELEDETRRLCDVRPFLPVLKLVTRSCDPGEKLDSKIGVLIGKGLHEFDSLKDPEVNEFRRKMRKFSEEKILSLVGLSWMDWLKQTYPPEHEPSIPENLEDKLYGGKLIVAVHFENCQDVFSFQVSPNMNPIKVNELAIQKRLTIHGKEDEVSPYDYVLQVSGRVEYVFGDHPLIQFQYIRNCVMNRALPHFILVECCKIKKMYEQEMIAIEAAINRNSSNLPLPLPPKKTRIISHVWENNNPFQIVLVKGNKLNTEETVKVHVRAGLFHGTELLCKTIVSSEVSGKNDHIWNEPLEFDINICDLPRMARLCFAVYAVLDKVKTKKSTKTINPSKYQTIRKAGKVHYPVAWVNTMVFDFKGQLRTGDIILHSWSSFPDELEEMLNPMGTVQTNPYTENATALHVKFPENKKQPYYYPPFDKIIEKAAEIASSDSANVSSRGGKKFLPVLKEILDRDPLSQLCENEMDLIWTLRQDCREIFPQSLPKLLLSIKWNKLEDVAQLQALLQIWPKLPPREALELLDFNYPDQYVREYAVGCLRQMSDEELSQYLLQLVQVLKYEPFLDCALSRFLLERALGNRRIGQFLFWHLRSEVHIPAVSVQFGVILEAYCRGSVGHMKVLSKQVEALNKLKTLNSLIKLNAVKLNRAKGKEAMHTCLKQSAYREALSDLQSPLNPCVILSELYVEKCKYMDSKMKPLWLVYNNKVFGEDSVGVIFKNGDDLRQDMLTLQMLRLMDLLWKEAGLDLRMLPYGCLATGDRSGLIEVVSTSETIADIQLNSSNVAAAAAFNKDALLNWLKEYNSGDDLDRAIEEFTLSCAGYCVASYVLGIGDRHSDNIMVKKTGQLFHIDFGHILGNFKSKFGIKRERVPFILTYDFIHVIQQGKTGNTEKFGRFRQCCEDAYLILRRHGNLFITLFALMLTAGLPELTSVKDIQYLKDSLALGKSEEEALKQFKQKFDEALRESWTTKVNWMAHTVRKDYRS
Sequence of P110β (P27986 whole entry partner, canonical isoform): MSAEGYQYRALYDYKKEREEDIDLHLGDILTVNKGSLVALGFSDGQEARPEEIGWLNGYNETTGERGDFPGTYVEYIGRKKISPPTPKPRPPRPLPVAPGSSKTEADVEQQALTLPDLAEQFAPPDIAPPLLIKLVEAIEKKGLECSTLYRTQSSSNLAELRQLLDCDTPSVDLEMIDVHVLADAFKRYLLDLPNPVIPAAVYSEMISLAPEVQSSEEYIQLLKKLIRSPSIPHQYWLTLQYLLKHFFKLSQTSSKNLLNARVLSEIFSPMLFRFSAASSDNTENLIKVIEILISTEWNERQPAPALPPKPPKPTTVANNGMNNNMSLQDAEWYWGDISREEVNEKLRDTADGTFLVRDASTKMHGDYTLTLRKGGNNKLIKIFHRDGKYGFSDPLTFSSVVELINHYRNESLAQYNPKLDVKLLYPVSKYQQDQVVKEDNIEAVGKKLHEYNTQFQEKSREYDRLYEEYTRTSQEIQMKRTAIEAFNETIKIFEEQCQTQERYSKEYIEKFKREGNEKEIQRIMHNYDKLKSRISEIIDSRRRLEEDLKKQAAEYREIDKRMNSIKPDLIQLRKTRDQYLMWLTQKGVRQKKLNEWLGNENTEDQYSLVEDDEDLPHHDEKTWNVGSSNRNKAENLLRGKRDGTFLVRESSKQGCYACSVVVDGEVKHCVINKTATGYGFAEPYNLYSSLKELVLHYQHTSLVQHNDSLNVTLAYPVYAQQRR
From the text: Assay 1: Fluorescent determination of PI3Kinase Kinase enzyme activity
Phosphoinositide 3 kinases (PI3K) belong to a class of lipid kinases that play a critical role in the regulation of several key cellular processes. The PI3K are capable of phosphorylating the 3-hydroxy position of phosphoinositols thereby generating second messengers involved in downstream signalling events. The homogenous time resolved fluorescence (HTRF) assay allows detection of 3,4,5-triphosphate (PIP3) formed as a result of phosphorylation of phosphotidylinositol 4,5-biphosphate (PIP2) by PI3K isoforms such as α, β, γ or δ.
PI3K isoform activity for α, β, γ or δ was determined using a PI3K human HTRF™ Assay Kit (Millipore, Billerica, Mass.) with modifications. All incubations were carried out at room temperature. Briefly, 0.5 μl of 40× inhibitor (in 100% DMSO) or 100% DMSO were added to each well of a 384-well black plate (Greiner Bio-One, Monroe, N.C.) containing 14.5 μl 1× reaction buffer/PIP2 (10 mM MgCl2, 5 mM DTT, 1.38 μM PIP2) mix with or without enzyme and incubated for 10 min. After the initial incubation, 5 μl/well of 400 μM ATP was added and incubated for an additional 30 minutes. Reaction was terminated by adding 5 μl/well stop solution (Millipore, Billerica, Mass.). Five microliters of detection mix (Millipore, Billerica, Mass.) were then added to each well and was incubated for 6-18 h in the dark. HRTF ratio was measured on a microplate reader (BMG Labtech., Germany) at an excitation wavelength of 337 nm and emission wavelengths of 665 and 620 nm with an integration time of […]. Data were analyzed using Graphpad Prism (Graphpad software; San Diego Calif.) for IC50 determination. Percent inhibition was calculated based on the values for the blank and enzyme controls. The results are provided below in Table 2 & 3.

Sequence of P110 δ/Pi3K δ (O00329 whole entry, canonical isoform): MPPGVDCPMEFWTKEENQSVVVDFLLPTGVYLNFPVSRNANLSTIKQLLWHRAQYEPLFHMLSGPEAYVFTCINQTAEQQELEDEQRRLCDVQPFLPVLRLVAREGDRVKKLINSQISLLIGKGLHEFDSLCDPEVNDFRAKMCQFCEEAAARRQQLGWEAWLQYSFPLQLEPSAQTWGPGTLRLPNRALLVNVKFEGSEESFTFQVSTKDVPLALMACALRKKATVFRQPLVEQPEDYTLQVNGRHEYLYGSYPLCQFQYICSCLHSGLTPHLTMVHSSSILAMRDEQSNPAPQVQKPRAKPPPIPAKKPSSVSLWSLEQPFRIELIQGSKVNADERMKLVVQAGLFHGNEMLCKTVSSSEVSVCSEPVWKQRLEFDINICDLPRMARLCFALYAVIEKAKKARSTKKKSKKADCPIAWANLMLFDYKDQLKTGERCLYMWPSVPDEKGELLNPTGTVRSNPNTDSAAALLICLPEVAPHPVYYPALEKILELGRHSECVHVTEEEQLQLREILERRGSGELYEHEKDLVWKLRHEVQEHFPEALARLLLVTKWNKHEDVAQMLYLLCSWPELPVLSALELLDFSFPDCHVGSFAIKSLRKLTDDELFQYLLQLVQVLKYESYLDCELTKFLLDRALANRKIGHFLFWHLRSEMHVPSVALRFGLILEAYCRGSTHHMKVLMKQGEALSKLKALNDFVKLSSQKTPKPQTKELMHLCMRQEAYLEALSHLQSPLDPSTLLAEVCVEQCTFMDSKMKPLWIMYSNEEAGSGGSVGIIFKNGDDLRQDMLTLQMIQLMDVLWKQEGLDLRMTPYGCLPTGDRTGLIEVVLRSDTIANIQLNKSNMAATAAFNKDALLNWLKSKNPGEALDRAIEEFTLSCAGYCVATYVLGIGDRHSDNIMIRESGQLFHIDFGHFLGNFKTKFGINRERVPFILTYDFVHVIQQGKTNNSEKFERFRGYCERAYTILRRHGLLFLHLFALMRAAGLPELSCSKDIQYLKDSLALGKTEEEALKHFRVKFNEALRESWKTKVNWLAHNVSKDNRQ
Sequence of P110 δ/Pi3K δ (P27986 whole entry partner, canonical isoform): as the sequence (P27986 whole entry partner, canonical isoform) above

Compound	melting point [°C]	inhibition at 1 µM (P110β) [%]	inhibition (P110 δ/Pi3K δ) [%]	further results
O=c1c(-c2ccc(F)cc2)c(CN2CCOCC2)oc2ccc(Br)cc12 [Example 17, 6-Bromo-3-(4-fluorophenyl)-2-(morpholinomethyl)-4H-chromen-4-one]		< 25		
CC(c1oc2ccccc2c(=O)c1-c1cccc(F)c1)n1nc(-c2csc(CO)c2)c2c(N)ncnc21 (stereo not shown) [Example 114, 2-(1-(4-amino-3-(5-(hydroxymethyl)thiophen-3-yl)-1H-pyrazolo[3,4-d]pyrimidin-1-yl)ethyl)-3-(3-fluorophenyl)-4H-chromen-4-one]	154 to 156	< 25	50 to 100	
O=c1c(-c2cccc(F)c2)c(CNc2ncnc3[nH]cnc23)oc2ccc(F)cc12 [Example 122, 2-((9H-purin-6-ylamino)methyl)-6-fluoro-3-(3-fluorophenyl)-4H-chromen-4-one]	229 to 232	50 to 100	< 50	
O=c1c(-c2ccccc2)c(CNc2ncnc3[nH]cnc23)oc2ccc(F)cc12 [Example 123, 2-((9H-purin-6-ylamino)methyl)-6-fluoro-3-phenyl-4H-chromen-4-one]	183 to 186	< 25	< 50	
COc1c(F)cc(-c2nn(Cc3oc4ccc(F)cc4c(=O)c3-c3cccc(F)c3)c3ncnc(N)c23)cc1F [Example 127, 2-((4-amino-3-(3,5-difluoro-4-methoxyphenyl)-1H-pyrazolo[3,4-d]pyrimidin-1-yl)methyl)-6-fluoro-3-(3-fluorophenyl)-4H-chromen-4-one]		50 to 100		
CC(c1oc2ccccc2c(=O)c1-c1cccc(F)c1)n1nc(-c2cnn(Cc3ccccc3)c2)c2c(N)ncnc21 (stereo not shown) [Example 134, 2-(1-(4-amino-3-(1-benzyl-1H-pyrazol-4-yl)-1H-pyrazolo[3,4-d]pyrimidin-1-yl)ethyl)-3-(3-fluorophenyl)-4H-chromen-4-one]	140 to 142	25 to 50	< 50	
CC(c1oc2ccccc2c(=O)c1-c1cccc(F)c1)n1nc(-c2cccc3c2oc2ccccc23)c2c(N)ncnc21 (stereo not shown) [Example 138, 2-(1-(4-amino-3-(dibenzo[b,d]furan-4-yl)-1H-pyrazolo[3,4-d]pyrimidin-1-yl)ethyl)-3-(3-fluorophenyl)-4H-chromen-4-one]	238 to 240	25 to 50		
CC(c1oc2ccccc2c(=O)c1-c1cccc(F)c1)n1nc(-c2csc3ccccc23)c2c(N)ncnc21 (stereo not shown) [Example 173, 2-(1-(4-amino-3-(benzo[b]thiophen-3-yl)-1H-pyrazolo[3,4-d]pyrimidin-1-yl)ethyl)-3-(3-fluorophenyl)-4H-chromen-4-one]	226 to 229		50 to 100	
CC(c1oc2ccccc2c(=O)c1-c1cccc(F)c1)n1nc(-c2cccc(C(=O)NC3CC3)c2)c2c(N)ncnc21 (stereo not shown) [Example 176, 3-(4-amino-1-(1-(3-(3-fluorophenyl)-4-oxo-4H-chromen-2-yl)ethyl)-1H-pyrazolo[3,4-d]pyrimidin-3-yl)-N-cyclopropylbenzamide]	127 to 132		< 50	
CC(c1oc2ccccc2c(=O)c1-c1cccc(F)c1)n1nc(-c2cccc(C(=O)N3CCOCC3)c2)c2c(N)ncnc21 (stereo not shown) [Example 177, 2-(1-(4-amino-3-(3-(morpholine-4-carbonyl)phenyl)-1H-pyrazolo[3,4-d]pyrimidin-1-yl)ethyl)-3-(3-fluorophenyl)-4H-chromen-4-one]	104 to 106		< 50	
CC(c1oc2ccccc2c(=O)c1-c1cccc(F)c1)n1nc(-c2cccc(OC(F)F)c2)c2c(N)ncnc21 (stereo not shown) [Example 178, 2-(1-(4-amino-3-(3-(difluoromethoxy)phenyl)-1H-pyrazolo[3,4-d]pyrimidin-1-yl)ethyl)-3-(3-fluorophenyl)-4H-chromen-4-one]	176 to 179		50 to 100	

Continued, in another order:

melting point [°C]	inhibition at 1 µM (P110β) [%]	inhibition (P110 δ/Pi3K δ) [%]	Compound	further results
157 to 160			Cc1n[nH]c2cc(-c3nn([C@H](C)c4oc5ccccc5c(=O)c4-c4cccc(F)c4)c4ncnc(N)c34)ccc12 (single isomer, unassigned) [Example 129, (−)-2-(1-(4-amino-3-(3-methyl-1H-indazol-6-yl)-1H-pyrazolo[3,4-d]pyrimidin-1-yl)ethyl)-3-(3-fluorophenyl)-4H-chromen-4-one]	IC50 (P110 δ/Pi3K δ; read-out: P110 δ/ Pi3K δ IC 50 nM): > 500 nM; % inhibition (1 μM) P110β (P110β; 1 µM): ++ (++ is less than equal to 50% inhibition but more than equal to 25% at 1 μM)
192 to 195	< 25	50 to 100	CC(c1oc2ccccc2c(=O)c1-c1cccc(F)c1)n1nc(-c2csc(C=O)c2)c2c(N)ncnc21 (stereo not shown) [Example 113, 4-(4-amino-1-(1-(3-(3-fluorophenyl)-4-oxo-4H-chromen-2-yl)ethyl)-1H-pyrazolo[3,4-d]pyrimidin-3-yl)thiophene-2-carbaldehyde]	
262 to 265			Cc1c[nH]c2cc(-c3nn(C(C)c4oc5ccccc5c(=O)c4-c4cccc(F)c4)c4ncnc(N)c34)ccc12 (stereo not shown) [Example 117, 2-(1-(4-amino-3-(3-methyl-1H-indol-6-yl)-1H-pyrazolo[3,4-d]pyrimidin-1-yl)ethyl)-3-(3-fluorophenyl)-4H-chromen-4-one]	P110 δ/ Pi3K δ % inhibition* (P110 δ/Pi3K δ; @ 0.3 uM): ++ (++ is less than equal to 100% inhibition but more than equal to 50% at 1 μM); % inhibition (1 μM) P110β (P110β): + (+ is less than equal to 25% inhibition at 1 μM)
	< 25		COc1c(F)cc(-c2nn(C(C)c3oc4ccccc4c(=O)c3-c3cccc(F)c3)c3ncnc(N)c23)cc1F (stereo not shown) [Example 126, 2-(1-(4-amino-3-(3,5-difluoro-4-methoxyphenyl)-1H-pyrazolo[3,4-d]pyrimidin-1-yl)ethyl)-3-(3-fluorophenyl)-4H-chromen-4-one]	
266 to 268	25 to 50	< 50	Cc1cc(-c2nn(C(C)c3oc4ccccc4c(=O)c3-c3cccc(F)c3)c3ncnc(N)c23)ccn1 (stereo not shown) [Example 135, 2-(1-(4-amino-3-(2-methylpyridin-4-yl)-1H-pyrazolo[3,4-d]pyrimidin-1-yl)ethyl)-3-(3-fluorophenyl)-4H-chromen-4-one]	
269 to 274		< 50	Cc1c2ccc(-c3nn(C(C)c4oc5ccccc5c(=O)c4-c4cccc(F)c4)c4ncnc(N)c34)cc2nn1C (stereo not shown) [Example 171, 2-(1-(4-amino-3-(2,3-dimethyl-2H-indazol-6-yl)-1H-pyrazolo[3,4-d]pyrimidin-1-yl)ethyl)-3-(3-fluorophenyl)-4H-chromen-4-one]	
285 to 287		< 50	COc1ccc2cc(-c3nn(C(C)c4oc5ccccc5c(=O)c4-c4cccc(F)c4)c4ncnc(N)c34)ccc2c1 (stereo not shown) [Example 172, 2-(1-(4-amino-3-(6-methoxynaphthalen-2-yl)-1H-pyrazolo[3,4-d]pyrimidin-1-yl)ethyl)-3-(3-fluorophenyl)-4H-chromen-4-one]	
215 to 217		50 to 100	CC(c1oc2ccccc2c(=O)c1-c1cccc(F)c1)n1nc(-c2ccc(C=O)o2)c2c(N)ncnc21 (stereo not shown) [Example 179, 5-(4-amino-1-(1-(3-(3-fluorophenyl)-4-oxo-4H-chromen-2-yl)ethyl)-1H-pyrazolo[3,4-d]pyrimidin-3-yl)furan-2-carbaldehyde]	

Reference: patent US9421209B2, “Kinase modulators” (Rhizen Pharmaceuticals SA, priority 2009, dated 2016)
